# Test results: article PMC2972509 (Journal of medicinal chemistry, 2010)
# “And” between values parts separate entries of the source, which are not always exact repeats. Identical values can stand only once. “Also recorded” adds a separate entry of the source.
# What was measured:
# [1] = target: T1, dopamine D4 receptor (Rattus norvegicus, UniProt P30729); assay: Radioligand competition binding at cloned dopamine D4 receptor; conditions: for D4 Ki, nM ± SEM: [3H]MSP, cloned rat D4 receptor in HEK293 membranes; for Selectivity for D4 over off-target receptors: over D2, D3, 5-HT1A, 5-HT2A, 5-HT2C and sigma1 receptors
# T1 sequence (P30729 1-387): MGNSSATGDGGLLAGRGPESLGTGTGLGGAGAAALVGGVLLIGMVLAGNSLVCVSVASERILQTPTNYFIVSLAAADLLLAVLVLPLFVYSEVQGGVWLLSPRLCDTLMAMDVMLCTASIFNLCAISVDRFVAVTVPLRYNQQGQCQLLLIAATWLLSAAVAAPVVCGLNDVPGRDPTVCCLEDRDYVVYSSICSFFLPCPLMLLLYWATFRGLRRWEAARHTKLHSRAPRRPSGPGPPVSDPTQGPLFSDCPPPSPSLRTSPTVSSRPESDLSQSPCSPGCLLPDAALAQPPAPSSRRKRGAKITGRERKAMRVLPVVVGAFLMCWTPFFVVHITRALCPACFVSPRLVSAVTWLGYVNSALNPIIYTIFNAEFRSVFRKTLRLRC
# [2] = Preliminary disposition studies in mice; format: in vivo; conditions: for Tmax: male, CD1, mouse, plasma, ip; for Maximum brain concentration (mean ± SD) / Maximum plasma concentration (mean ± SD): parent compound, 7 after 30 min, 13 after 15 min
# [3] = target: T2, cloned D4 dopamine receptor (Rattus norvegicus, UniProt P30729); assay: D4 receptor functional assay: decrease in forskolin-stimulated cAMP accumulation; format: cell-based; conditions: Gi/o-mediated
# T2 sequence (P30729 1-387): T1 sequence (P30729 1-387)
"D4 Ki, nM ± SEM [1]",Selectivity for D4 over off-target receptors [1] [fold],Tmax ([2]; 10 mg/kg) [min],"Time up to which plasma concentrations were consistently detected ([2]; mice, 10 mg/kg i.p.)","Time up to which quantifiable brain levels were consistently evident ([2]; mice, 10 mg/kg i.p.)","Maximum brain concentration (mean ± SD) ([2]; mice, 10 mg/kg i.p.) [µg/g]","Maximum plasma concentration (mean ± SD) ([2]; mice, 10 mg/kg i.p., 10 mg/kg)",Fold higher D4 affinity than the 3-methoxy analog 5 [1],"Time of mean brain Cmax ([2]; mice, 10 mg/kg i.p.) [min]","Plasma concentration after 30 minutes (below limit of quantitation) ([2]; mice, 10 mg/kg i.p., 0.2 ml plasma)","Maximum plasma concentration (mean ± SD) ([2]; mice, 10 mg/kg i.p.) [µg/mL]",SMILES,Functional property at D4 receptor [3]
nanomolar affinity,> 100,30,up to 60 minutes,up to 30 min,0.14 ± 0.02,0.37 ± 0.02 µg/mL and 0.37 ± 0.21 µg/mL,–,–,–,–,"COc1cccc(C(=O)NCCN2CCN(c3ncccc3C#N)CC2)c1 [Compound 7, N-[2-[4-(3-Cyanopyridin-2-yl)piperazin-1-yl]ethyl]-3-methoxybenzamide]",agonist properties; also recorded: agonists
subnanomolar,–,–,–,–,–,–,approximately 6 fold,–,–,–,"O=C(NCCN1CCN(c2noc3ccccc23)CC1)c1ccc(F)cc1 [Compound 11, N-[2-[4-(1,2-Benzisoxazol-3-yl)piperazin-1-yl]ethyl]-4-fluorobenzamide]",–

SMILES,"D4 Ki, nM ± SEM [1]",Selectivity for D4 over off-target receptors [1] [fold],Tmax ([2]; 10 mg/kg) [min],"Time up to which plasma concentrations were consistently detected ([2]; mice, 10 mg/kg i.p.)","Time up to which quantifiable brain levels were consistently evident ([2]; mice, 10 mg/kg i.p.)","Maximum brain concentration (mean ± SD) ([2]; mice, 10 mg/kg i.p.) [µg/g]","Maximum plasma concentration (mean ± SD) ([2]; mice, 10 mg/kg i.p., 10 mg/kg)",Fold higher D4 affinity than the 3-methoxy analog 5 [1],"Time of mean brain Cmax ([2]; mice, 10 mg/kg i.p.) [min]","Plasma concentration after 30 minutes (below limit of quantitation) ([2]; mice, 10 mg/kg i.p., 0.2 ml plasma)","Maximum plasma concentration (mean ± SD) ([2]; mice, 10 mg/kg i.p.) [µg/mL]",Functional property at D4 receptor [3]
"N#Cc1cccnc1N1CCN(CCNC(=O)c2ccc(F)cc2)CC1 [Compound 13, N-[2-[4-(3-Cyanopyridin-2-yl)piperazin-1-yl]ethyl]-4-fluorobenzamide]",subnanomolar; also recorded: nanomolar affinity,> 100,15,–,up to 60 min,0.47 ± 0.20,–,–,15,less than 0.1 µg/mL,0.13 ± 0.10,agonist properties; also recorded: agonists
